ChEMBL document CHEMBL1155237, “Selective inhibitors of the mutant B-Raf pathway: discovery of a potent and orally bioavailable aminoisoquinoline” (J Med Chem, 2009)

Columns and labels:
[1] = molecular target: Serine/threonine-protein kinase PLK3 (Homo sapiens) (UniProt Q9H4B4); assay: Inhibition of PLK3 assessed as enzyme activity at 1 uM relative to untreated control; set-up: scale not given: the % may be the effect or the level left
[2] = molecular target: Fibroblast growth factor receptor 2 (Homo sapiens) (UniProt P21802); assay: Inhibition of FGFR2 assessed as enzyme activity at 1 uM relative to untreated control; set-up: scale not given: the % may be the effect or the level left
Fibroblast growth factor receptor 2 (Homo sapiens), sequence (P21802 22-821 limits assumed): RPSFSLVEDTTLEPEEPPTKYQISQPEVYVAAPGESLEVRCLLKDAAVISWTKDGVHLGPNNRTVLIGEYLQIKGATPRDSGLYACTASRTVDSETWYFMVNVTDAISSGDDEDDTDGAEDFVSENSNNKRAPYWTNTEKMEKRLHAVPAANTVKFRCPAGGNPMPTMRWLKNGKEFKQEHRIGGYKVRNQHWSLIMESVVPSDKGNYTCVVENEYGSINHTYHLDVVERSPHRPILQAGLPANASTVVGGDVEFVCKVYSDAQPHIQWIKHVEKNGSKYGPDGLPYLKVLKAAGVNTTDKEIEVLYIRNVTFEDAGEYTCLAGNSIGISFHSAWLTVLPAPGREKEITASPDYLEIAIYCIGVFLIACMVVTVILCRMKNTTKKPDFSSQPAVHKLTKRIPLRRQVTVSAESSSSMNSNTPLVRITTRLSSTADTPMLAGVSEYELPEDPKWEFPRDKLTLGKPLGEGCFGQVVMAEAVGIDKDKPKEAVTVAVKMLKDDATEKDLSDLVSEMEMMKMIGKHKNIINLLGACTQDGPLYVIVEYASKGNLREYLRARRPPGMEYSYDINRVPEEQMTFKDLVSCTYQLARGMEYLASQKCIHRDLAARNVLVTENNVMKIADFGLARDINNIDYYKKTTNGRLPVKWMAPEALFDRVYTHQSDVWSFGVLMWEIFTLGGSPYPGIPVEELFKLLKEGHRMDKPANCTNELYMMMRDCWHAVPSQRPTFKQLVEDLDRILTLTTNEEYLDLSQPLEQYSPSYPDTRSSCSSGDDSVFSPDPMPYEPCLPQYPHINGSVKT

[3] = molecular target: Cyclin-dependent kinase 15 (Homo sapiens) (UniProt Q96Q40); assay: Inhibition of PFTAIRE2 assessed as enzyme activity at 1 uM relative to untreated control; set-up: scale not given: the % may be the effect or the level left
[4] = molecular target: Serine/threonine-protein kinase RIO3 (Homo sapiens) (UniProt O14730); assay: Inhibition of RIOK3 assessed as enzyme activity at 1 uM relative to untreated control; set-up: scale not given: the % may be the effect or the level left
Serine/threonine-protein kinase RIO3 (Homo sapiens), sequence (O14730 whole entry): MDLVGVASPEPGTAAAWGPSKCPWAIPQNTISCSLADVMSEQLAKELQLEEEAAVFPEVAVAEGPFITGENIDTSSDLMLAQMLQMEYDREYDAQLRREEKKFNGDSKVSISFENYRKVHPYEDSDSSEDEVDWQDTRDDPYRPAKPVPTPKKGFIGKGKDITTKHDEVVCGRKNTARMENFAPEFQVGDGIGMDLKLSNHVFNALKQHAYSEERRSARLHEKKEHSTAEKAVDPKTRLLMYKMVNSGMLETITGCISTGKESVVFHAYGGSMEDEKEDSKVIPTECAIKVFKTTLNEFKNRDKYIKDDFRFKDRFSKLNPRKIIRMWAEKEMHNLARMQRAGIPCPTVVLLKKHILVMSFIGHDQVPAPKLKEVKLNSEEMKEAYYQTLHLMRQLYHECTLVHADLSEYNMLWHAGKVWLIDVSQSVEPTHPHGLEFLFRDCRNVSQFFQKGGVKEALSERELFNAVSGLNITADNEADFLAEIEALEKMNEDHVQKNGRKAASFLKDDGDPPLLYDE

[5] = molecular target: Serine/threonine-protein kinase DCLK3 (Homo sapiens) (UniProt Q9C098); assay: Inhibition of DCAMKL3 assessed as enzyme activity at 1 uM relative to untreated control; set-up: scale not given: the % may be the effect or the level left
[6] = molecular target: Mitogen-activated protein kinase 4 (Homo sapiens) (UniProt P31152); assay: Inhibition of ERK4 assessed as enzyme activity at 1 uM relative to untreated control; set-up: scale not given: the % may be the effect or the level left
Mitogen-activated protein kinase 4 (Homo sapiens), sequence (P31152 whole entry): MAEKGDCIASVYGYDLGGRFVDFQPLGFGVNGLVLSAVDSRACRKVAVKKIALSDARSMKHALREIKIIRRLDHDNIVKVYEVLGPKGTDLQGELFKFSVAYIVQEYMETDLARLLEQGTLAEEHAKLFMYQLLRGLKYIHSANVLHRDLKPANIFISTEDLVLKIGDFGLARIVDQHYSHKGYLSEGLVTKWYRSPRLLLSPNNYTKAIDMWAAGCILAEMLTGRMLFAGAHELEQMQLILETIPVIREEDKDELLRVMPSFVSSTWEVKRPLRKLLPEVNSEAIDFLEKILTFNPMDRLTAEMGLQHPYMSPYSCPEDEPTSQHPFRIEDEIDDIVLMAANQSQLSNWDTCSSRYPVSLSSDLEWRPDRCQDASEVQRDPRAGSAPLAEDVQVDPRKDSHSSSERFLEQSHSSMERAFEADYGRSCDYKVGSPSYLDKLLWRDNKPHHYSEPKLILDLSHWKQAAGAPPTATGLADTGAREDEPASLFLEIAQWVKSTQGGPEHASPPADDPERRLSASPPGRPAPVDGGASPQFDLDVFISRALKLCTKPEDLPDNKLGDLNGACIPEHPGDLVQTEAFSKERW

[7] = molecular target: Serine/threonine-protein kinase PAK 6 (Homo sapiens) (UniProt Q9NQU5); assay: Inhibition of PAK6 assessed as enzyme activity at 1 uM relative to untreated control; set-up: scale not given: the % may be the effect or the level left
[8] = molecular target: MAP kinase-activated protein kinase 2 (Homo sapiens) (UniProt P49137); assay: Inhibition of MAPKAPK2 assessed as enzyme activity at 1 uM relative to untreated control; set-up: scale not given: the % may be the effect or the level left
[9] = molecular target: Serine/threonine-protein kinase PAK 3 (Homo sapiens) (UniProt O75914); assay: Inhibition of PAK3 assessed as enzyme activity at 1 uM relative to untreated control; set-up: scale not given: the % may be the effect or the level left
[10] = molecular target: Vascular endothelial growth factor receptor 3 (Homo sapiens) (UniProt P35916); assay: Inhibition of FLT4 assessed as enzyme activity at 1 uM relative to untreated control; set-up: scale not given: the % may be the effect or the level left
[11] = molecular target: Aurora kinase C (Homo sapiens) (UniProt Q9UQB9); assay: Inhibition of AURKC assessed as enzyme activity at 1 uM relative to untreated control; set-up: scale not given: the % may be the effect or the level left
[12] = Clearance in CD1 mouse; assay type: ADME, organism-based; details: in vivo
[13] = molecular target: Serine/threonine-protein kinase SIK2 (Homo sapiens) (UniProt Q9H0K1); assay: Inhibition of SNF1LK2 assessed as enzyme activity at 1 uM relative to untreated control; set-up: scale not given: the % may be the effect or the level left
[14] = molecular target: cAMP-dependent protein kinase catalytic subunit PRKX (Homo sapiens) (UniProt P51817); assay: Inhibition of PRKX assessed as enzyme activity at 1 uM relative to untreated control; set-up: scale not given: the % may be the effect or the level left
[15] = molecular target: Cyclin-dependent kinase 11B (Homo sapiens) (UniProt P21127); assay: Inhibition of CDC2L1 assessed as enzyme activity at 1 uM relative to untreated control; set-up: scale not given: the % may be the effect or the level left
[16] = tested on: Epidermal growth factor receptor (Homo sapiens), P00533 [UNDEFINED MUTATION]; assay: Inhibition of EGFR L747-S752del, P753S mutant assessed as enzyme activity at 1 uM relative to untreated control; assay type: protein assay; set-up: scale not given: the % may be the effect or the level left
[17] = molecular target: MAP/microtubule affinity-regulating kinase 3 (Homo sapiens) (UniProt P27448); assay: Inhibition of MARK3 assessed as enzyme activity at 1 uM relative to untreated control; set-up: scale not given: the % may be the effect or the level left
[18] = tested on: Receptor-type tyrosine-protein kinase FLT3 (Homo sapiens), P36888 [N841I]; assay: Inhibition of FLT3 N841I mutant assessed as enzyme activity at 1 uM relative to untreated control; set-up: scale not given: the % may be the effect or the level left
[19] = molecular target: Mitogen-activated protein kinase 1 (Homo sapiens) (UniProt P28482); assay: Inhibition of ERK2 assessed as enzyme activity at 1 uM relative to untreated control; set-up: scale not given: the % may be the effect or the level left
[20] = molecular target: Serine/threonine-protein kinase Nek9 (Homo sapiens) (UniProt Q8TD19); assay: Inhibition of NEK9 assessed as enzyme activity at 1 uM relative to untreated control; set-up: scale not given: the % may be the effect or the level left
[21] = molecular target: Mitogen-activated protein kinase kinase kinase 20 (Homo sapiens) (UniProt Q9NYL2); assay: Inhibition of ZAK assessed as enzyme activity at 1 uM relative to untreated control; set-up: scale not given: the % may be the effect or the level left
Mitogen-activated protein kinase kinase kinase 20 (Homo sapiens), sequence (Q9NYL2 2-800 limits assumed): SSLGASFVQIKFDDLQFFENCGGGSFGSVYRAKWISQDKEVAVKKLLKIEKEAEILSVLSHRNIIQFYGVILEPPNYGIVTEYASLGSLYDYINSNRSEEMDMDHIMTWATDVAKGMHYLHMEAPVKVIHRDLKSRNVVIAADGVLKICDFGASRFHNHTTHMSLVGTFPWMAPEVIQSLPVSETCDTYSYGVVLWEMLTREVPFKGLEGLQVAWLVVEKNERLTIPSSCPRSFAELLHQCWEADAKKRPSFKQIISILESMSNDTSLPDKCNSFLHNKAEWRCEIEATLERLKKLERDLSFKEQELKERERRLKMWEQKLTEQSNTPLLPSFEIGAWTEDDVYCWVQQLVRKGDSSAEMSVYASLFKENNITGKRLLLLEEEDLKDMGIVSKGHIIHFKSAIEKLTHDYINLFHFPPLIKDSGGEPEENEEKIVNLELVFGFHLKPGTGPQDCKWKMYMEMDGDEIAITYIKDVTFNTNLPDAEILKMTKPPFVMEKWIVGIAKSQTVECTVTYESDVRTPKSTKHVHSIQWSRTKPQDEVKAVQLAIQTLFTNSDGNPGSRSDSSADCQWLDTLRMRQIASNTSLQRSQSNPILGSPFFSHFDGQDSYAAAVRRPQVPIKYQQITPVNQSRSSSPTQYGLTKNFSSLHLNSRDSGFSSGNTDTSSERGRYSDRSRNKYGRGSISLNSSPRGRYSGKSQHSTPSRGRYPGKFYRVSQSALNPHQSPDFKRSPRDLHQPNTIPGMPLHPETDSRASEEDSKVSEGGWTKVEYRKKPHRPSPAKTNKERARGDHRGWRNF

[22] = molecular target: Calcium/calmodulin-dependent protein kinase type II subunit delta (Homo sapiens) (UniProt Q13557); assay: Inhibition of CAMK2D assessed as enzyme activity at 1 uM relative to untreated control; set-up: scale not given: the % may be the effect or the level left
Mus musculus = assay: Inhibition of ERK phosphorylation in human A375 SQ2 cells xenografted CD1 mouse at 5 mg/kg, po qd after 6 hrs; assay type: functional; details: CD1, A375-SQ2, 6 h
[23] = molecular target: Casein kinase I isoform gamma-3 (Homo sapiens) (UniProt Q9Y6M4); assay: Inhibition of CSNK1G3 assessed as enzyme activity at 1 uM relative to untreated control; set-up: scale not given: the % may be the effect or the level left
[24] = molecular target: Tyrosine-protein kinase Lyn (Homo sapiens) (UniProt P07948); assay: Inhibition of LYN assessed as enzyme activity at 1 uM relative to untreated control; set-up: scale not given: the % may be the effect or the level left
[25] = tested on: Mast/stem cell growth factor receptor Kit (Homo sapiens), P10721 [V559D,T670I]; assay: Inhibition of KIT V559D,T670I mutant assessed as enzyme activity at 1 uM relative to untreated control; set-up: scale not given: the % may be the effect or the level left
[26] = molecular target: High affinity nerve growth factor receptor (Homo sapiens) (UniProt P04629); assay: Inhibition of TRKA assessed as enzyme activity at 1 uM relative to untreated control; set-up: scale not given: the % may be the effect or the level left
[27] = molecular target: Dual specificity protein kinase TTK (Homo sapiens) (UniProt P33981); assay: Inhibition of TTK assessed as enzyme activity at 1 uM relative to untreated control; set-up: scale not given: the % may be the effect or the level left
Dual specificity protein kinase TTK (Homo sapiens), sequence (P33981 whole entry): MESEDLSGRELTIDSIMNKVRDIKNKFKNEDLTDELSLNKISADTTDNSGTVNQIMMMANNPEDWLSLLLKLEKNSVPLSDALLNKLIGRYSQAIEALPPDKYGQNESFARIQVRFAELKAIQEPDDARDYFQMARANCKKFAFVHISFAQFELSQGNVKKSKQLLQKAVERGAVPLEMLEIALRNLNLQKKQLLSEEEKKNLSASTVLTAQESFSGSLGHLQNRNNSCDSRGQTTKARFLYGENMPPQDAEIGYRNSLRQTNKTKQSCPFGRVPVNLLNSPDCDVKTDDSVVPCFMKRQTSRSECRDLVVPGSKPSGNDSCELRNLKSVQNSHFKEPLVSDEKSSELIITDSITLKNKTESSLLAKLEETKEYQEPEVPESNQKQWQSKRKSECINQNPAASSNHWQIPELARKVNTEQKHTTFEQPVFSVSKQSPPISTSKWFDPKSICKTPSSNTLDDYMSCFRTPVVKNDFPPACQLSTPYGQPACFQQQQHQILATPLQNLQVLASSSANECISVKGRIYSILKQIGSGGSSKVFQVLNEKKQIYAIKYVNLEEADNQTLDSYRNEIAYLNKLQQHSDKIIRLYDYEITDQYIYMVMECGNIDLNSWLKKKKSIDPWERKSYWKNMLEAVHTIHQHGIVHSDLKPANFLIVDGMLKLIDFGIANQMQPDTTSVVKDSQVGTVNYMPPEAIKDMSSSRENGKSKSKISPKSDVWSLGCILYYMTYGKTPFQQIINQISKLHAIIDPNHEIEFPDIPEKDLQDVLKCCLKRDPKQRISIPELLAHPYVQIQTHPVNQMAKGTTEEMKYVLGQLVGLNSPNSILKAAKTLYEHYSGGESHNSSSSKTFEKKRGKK

[28] = molecular target: Activin receptor type-1 (Homo sapiens) (UniProt Q04771); assay: Inhibition of ACVR1 assessed as enzyme activity at 1 uM relative to untreated control; set-up: scale not given: the % may be the effect or the level left
[29] = molecular target: Receptor-interacting serine/threonine-protein kinase 2 (Homo sapiens) (UniProt O43353); assay: Inhibition of RIPK2 assessed as enzyme activity at 1 uM relative to untreated control; set-up: scale not given: the % may be the effect or the level left
[30] = Clearance in Sprague-Dawley rat at 2 mg/kg, iv and 5 mg/kg, po; assay type: ADME, organism-based; details: in vivo
[31] = molecular target: Casein kinase II subunit alpha (Homo sapiens) (UniProt P68400); assay: Inhibition of CSNK2A1 assessed as enzyme activity at 1 uM relative to untreated control; set-up: scale not given: the % may be the effect or the level left
[32] = molecular target: Muscle, skeletal receptor tyrosine-protein kinase (Homo sapiens) (UniProt O15146); assay: Inhibition of MUSK assessed as enzyme activity at 1 uM relative to untreated control; set-up: scale not given: the % may be the effect or the level left
Muscle, skeletal receptor tyrosine-protein kinase (Homo sapiens), sequence (O15146 whole entry): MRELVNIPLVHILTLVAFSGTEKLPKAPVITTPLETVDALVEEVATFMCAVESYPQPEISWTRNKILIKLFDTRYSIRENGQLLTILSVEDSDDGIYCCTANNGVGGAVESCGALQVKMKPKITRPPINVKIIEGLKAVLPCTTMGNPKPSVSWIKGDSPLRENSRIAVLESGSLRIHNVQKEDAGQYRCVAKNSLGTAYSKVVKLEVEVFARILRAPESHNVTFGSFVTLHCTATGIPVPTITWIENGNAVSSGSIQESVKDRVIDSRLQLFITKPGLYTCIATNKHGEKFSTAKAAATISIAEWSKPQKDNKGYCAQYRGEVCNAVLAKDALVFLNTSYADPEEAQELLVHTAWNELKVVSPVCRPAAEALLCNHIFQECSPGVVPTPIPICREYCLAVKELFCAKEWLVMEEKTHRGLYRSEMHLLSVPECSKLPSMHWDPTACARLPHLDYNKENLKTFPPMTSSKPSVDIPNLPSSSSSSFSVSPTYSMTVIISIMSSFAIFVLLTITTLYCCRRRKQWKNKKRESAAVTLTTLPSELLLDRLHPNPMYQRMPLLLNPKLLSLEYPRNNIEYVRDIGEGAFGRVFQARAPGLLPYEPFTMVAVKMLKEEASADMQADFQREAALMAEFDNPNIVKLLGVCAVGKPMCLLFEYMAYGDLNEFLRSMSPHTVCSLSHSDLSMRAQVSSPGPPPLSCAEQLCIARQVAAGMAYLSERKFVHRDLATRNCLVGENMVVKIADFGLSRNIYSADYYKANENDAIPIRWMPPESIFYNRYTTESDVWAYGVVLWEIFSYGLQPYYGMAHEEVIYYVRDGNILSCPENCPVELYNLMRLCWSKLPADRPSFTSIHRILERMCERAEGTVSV

[33] = molecular target: Glycogen synthase kinase-3 beta (Homo sapiens) (UniProt P49841); assay: Inhibition of GSK3B assessed as enzyme activity at 1 uM relative to untreated control; set-up: scale not given: the % may be the effect or the level left
[34] = molecular target: Serine/threonine-protein kinase PAK 2 (Homo sapiens) (UniProt Q13177); assay: Inhibition of PAK2 assessed as enzyme activity at 1 uM relative to untreated control; set-up: scale not given: the % may be the effect or the level left
[35] = molecular target: Serine/threonine-protein kinase 38-like (Homo sapiens) (UniProt Q9Y2H1); assay: Inhibition of NDR2 assessed as enzyme activity at 1 uM relative to untreated control; set-up: scale not given: the % may be the effect or the level left
[36] = molecular target: Serine/threonine-protein kinase D1 (Homo sapiens) (UniProt Q15139); assay: Inhibition of PRKD1 assessed as enzyme activity at 1 uM relative to untreated control; set-up: scale not given: the % may be the effect or the level left
[37] = molecular target: Casein kinase I isoform delta (Homo sapiens) (UniProt P48730); assay: Inhibition of CSNK1D assessed as enzyme activity at 1 uM relative to untreated control; set-up: scale not given: the % may be the effect or the level left

Serine/threonine-protein kinase PLK3 (Homo sapiens), sequence (Q9H4B4 whole entry, looked up): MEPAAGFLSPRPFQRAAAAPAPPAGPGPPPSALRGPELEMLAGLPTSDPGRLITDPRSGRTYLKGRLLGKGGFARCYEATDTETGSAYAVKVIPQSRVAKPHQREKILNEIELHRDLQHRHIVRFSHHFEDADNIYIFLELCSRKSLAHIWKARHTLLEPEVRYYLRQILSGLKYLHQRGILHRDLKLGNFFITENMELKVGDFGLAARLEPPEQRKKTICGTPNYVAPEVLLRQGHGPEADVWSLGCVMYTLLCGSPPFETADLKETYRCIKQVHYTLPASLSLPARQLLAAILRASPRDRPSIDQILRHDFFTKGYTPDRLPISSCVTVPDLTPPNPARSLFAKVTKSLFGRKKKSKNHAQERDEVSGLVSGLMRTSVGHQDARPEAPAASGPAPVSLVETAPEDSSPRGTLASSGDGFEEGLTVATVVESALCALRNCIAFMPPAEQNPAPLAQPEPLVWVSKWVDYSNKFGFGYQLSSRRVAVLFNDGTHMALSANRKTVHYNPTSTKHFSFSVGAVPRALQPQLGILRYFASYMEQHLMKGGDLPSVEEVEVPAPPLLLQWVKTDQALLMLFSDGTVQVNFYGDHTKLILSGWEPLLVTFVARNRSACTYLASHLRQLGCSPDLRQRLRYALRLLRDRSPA

SMILES: Cc1ccc2c(Nc3ccc(Cl)cc3)nccc2c1Nc1ncccc1-c1ncnc2[nH]cnc12.Cl.Cl.Cl
- Activity [1]: 98%
- Activity [2]: 38%
- Activity [3]: 80%
- Activity [4]: 77%
- Activity [5]: 100%
- Activity [6]: 100%
- Activity [7]: 100%
- Activity [8]: 100%
- Activity [9]: 87%
- Activity [10]: 96%
- Activity [11]: 86%
- clearance [12]: 3.17 mL/min
- Activity [13]: 100%
- Activity [14]: 65%
- Activity [15]: 42%
- Activity [16]: 94%
- Activity [17]: 100%
- Activity [18]: 100%
- Activity [19]: 100%
- Activity [20]: 89%
- Activity [21]: 87%
- Activity [22]: 79%
- inhibition in vivo at 5 mg/kg (Mus musculus): 77%
- Activity [23]: 100%
- Activity [24]: 18%
- Activity [25]: 77%
- Activity [26]: 15%
- Activity [27]: 100%
- Activity [28]: 100%
- Activity [29]: 100%
- clearance [30]: 6.67 mL/min/kg
- Activity [31]: 100%
- Activity [32]: 66%
- Activity [33]: 100%
- Activity [34]: 85%
- Activity [35]: 100%
- Activity [36]: 100%
- Activity [37]: 99%
